One data set deals with intimal hyperplasia. The following applies: local photodynamic action; Heckenkamp et al 2000; cited from earlier work.
Data set [1] relates to full thickness wound in flank skin of diabetic (db/db) mice. Description: Wound healing in spontaneous diabetic (db/db) mice, PDT. The format is in vivo, mice (c57BLKs/Bom db/db). The text has this:
When wounds are created on (db/db) diabetic mice the wounds heal more slowly compared to the non diabetic mice. This delayed healing may be caused by a lack of vasculature to feed the wound. The delayed healing model is representative of a chronic wound, and wound healing effects of drugs can be more closely monitored and more easily measured.
18 animals were included in this study. 6 control non diabetic mice (db/+), 6 control diabetic (db/db) mice and 6 (db/db) PDT treated diabetic mice.
The 3,7-bis(N,N-dibutylamino)phenothiazin-5-ium bromide was formulated in ethanol and Unguentum M as described in Example 2 below at a concentration of 0.266 mg/mL.
On day 0, the animals were anaesthetised and a single standardised full thickness wound (7.5 mm×7.5 mm) was created in the flank skin of each experimental animal. Wounds were then dressed with a 1.5×1.5 cm pad of encapsulated gauze moistened with a fixed volume of sterile saline solution. […]
Image Pro image analysis software (version 4.1.0.0, obtained from Media Cybernetics, USA) was used to calculate wound closure from wound images in each of the experimental groups over time. For each wound at each time point—open wound area was measured and expressed in terms of % wound area relative to day 4 (treatment day).

In data set [2] the test system is full-thickness excisional wounds in flank skin of Wistar rats. Description: Closure of full thickness excisional wounds in Wistar rat, PDT. In kind it is in vivo. How it is done:
3,7-bis(N,N-dibutylamino)phenothiazin-5-ium bromide was solubilised in ethanol to give a concentration of 10 mg/ml. This was diluted in Unguentum M: 80% water, to give creams with final concentrations of 100 μM or 500 μM of 3,7-bis(N,N-dibutylamino)phenothiazin-5-ium bromide.
The above creams were used on the closure of full thickness excisional wounds in Wistar rats with exposure to light. The effect of topical application of 50 mg of 3,7-bis(N,N-dibutylamino)phenothiazin-5-ium bromide (at concentrations of 100 μM and 500 μM) followed by photo-activation with 688 nm laser light was investigated and compared to that of application of the drug delivery vehicle (Unguentum M) followed by 688 nm photo-activation. The light dose used was 50 J/cm^2. Wound repair was measured in terms of the closure of standardised full-thickness excisional wounds created in the flank skin of adult Wistar rats.

For data set [3], the system named is chronic non healing leg ulcers or diabetic foot ulcers. In words: Clinical study, PDT on wound healing of chronic ulcers. In kind it is in vivo, patients. The following applies: 500 μM cream topical. The text has this: After ethical review board approval and written informed participant consents were obtained, patients were recruited, provided they satisfied the ethically approved inclusion criteria. MHRA approval had been obtained.
Patients were recruited who had chronic non healing leg ulcers or diabetic foot ulcers. These patients had shown little or no wound healing for a number of weeks prior to treatment.
For the treatment 3,7-bis(N,N-dibutylamino)phenothiazin-5-ium bromide, formulated in ethanol and Unguentum M as described in Example 2 above at 500 μM, was applied topically to the ulcer surface and surrounding ulcer margin (5 mm) giving a cream depth of up to 5 mm. The ulcer was then left, not occluded, but in minimal lighting, for 15 minutes. After this pre-incubation time, the cream was rubbed into the ulcer so underlying skin/tissue could be seen through the cream. If this was not possible excess cream was removed. The ulcer was then illuminated using a broad band CureLight lamp (obtainable from PhotoCure) at a fluence rate of 20-50 mW/cm^2 giving a total light dose of 50 J/cm^2.
The ulcer area was measured pre treatment and after 1 week and one month.

For data set [4], the system named is full thickness wound in flank skin of Wistar rat. In words: Wound healing in the Wistar rat, no light. The format is in vivo. The following applies: for % Wound area remaining, no light, 2 days post treatment / % Wound area remaining, no light, 4 days post treatment / % Wound area remaining, no light, 6 days post treatment: 100 mg topical, not illuminated. How it is done: On day 0, animals were anaesthetised and a single standardised full thickness wound (7.5 mm×7.5 mm) was created in the flank skin of each experimental animal. Wounds were dressed with a 1.5×1.5 cm pad of encapsulated gauze moistened with a fixed volume of sterile saline.
Wounds were allowed to heal without intervention for a period of 4 days, other than the replacement of saline moistened gauze and film dressings, as required.
On day 4 standard secondary dressings were removed. 100 mg of 100 μM or 500 μM 3,7-bis(N,N-dibutylamino)phenothiazin-5-ium bromide cream was applied to the wound. The wounds were not illuminated. The area of the wounds were measured prior to treatment (day 4) and on day 6, 8 and 10.

Another data set deals with chronic leg ulcers. In words: Phase IIa randomised, placebo controlled trial, PDT in chronic leg ulcers. The following applies: 500 μM cream, 50 J/cm^2. The format is in vivo, patients. The protocol: 16 patients with chronic leg ulcers were recruited for the study. All patients had ulcers that had been present for at least 3 months prior to treatment. After randomisation, 8 patients were treated with 3,7-bis(N,N-dibutylamino)phenothiazin-5-ium bromide PDT and 8 patients were treated with placebo. Ulcer area was measured before treatment and at 1 week, 1 month, 2 months and 3 months post treatment using a Visitrak system. Photographs were taken of the ulcers before treatment and at 24 h, 1 week, 1, 2 and 3 months post treatment.
Placebo cream was Unguentum Merck: water (1:2). 3,7-bis(N,N-dibutylamino)phenothiazin-5-ium bromide cream was 500 μM 3,7-bis(N,N-dibutylamino)phenothiazin-5-ium bromide in Unguentum Merck:water (1:2). For the treatment a 1 mm depth of cream was spread over the surface of the ulcer. The ulcer was then left, occluded under film, shielded from light for 15 minutes. At the end of the 15 minute incubation, excess cream was removed and the ulcer was illuminated using a CureLight 01 (obtainable from Photocure) at a light dose of 50 J/cm^2.

For data set [5], the system named is rat skin flap reconstruction. The following applies: Kubler et al 1996; cited from earlier work.
A further data set deals with wounds. The following applies: literature conclusions (Parekh 1999, Lambrects 2005, Hamblin 2003, Belmont 1999); cited from earlier work.
Where [6] appears, read: individual patients 1-5, 50 J/cm^2 broad band light.

Several values for one entry are separate records, joined by “and”; a condition that tells them apart may be missing. Equal entries are not always repeated.

The values below come from patent publication US7407953B2, “Wound healing” (Photopharmica Limited, priority 2007, dated 2008).

Consider `CN(C)c1ccc2nc3ccc(=[N+](C)C)cc-3sc2c1` [methylene blue], for which, in the data set on intimal hyperplasia, the “effect on intimal hyperplasia” value is reported as “retarding effect on intimal hyperplasia”.

With `CCCCN(CCCC)c1ccc2nc3ccc(N(CCCC)CCCC)cc3[s+]c2c1.[Br-]` [3,7-bis(N,N-dibutylamino)phenothiazin-5-ium bromide], the “% wound area (open wound area relative to day 4, treatment day)” value in data set [1] (diabetic db/db mice, 500 μM in Unguentum M topical + 25 J/cm^2 688 nm light, 3 days post treatment, 6 animals) turned out to be 46%. In data set [1] (in combination with light, treated diabetic mice vs control diabetic mice), the “rate of wound healing” value is listed as “substantial increase in the rate of wound healing”. Moreover, the “wound closure, light treatment vs compound alone” value in data set [2] (100 μM cream, 50 mg topical, 688 nm laser light 50 J/cm^2) is “closed more rapidly”. Further, the “wound closure, higher dose vs lower dose” value in data set [2] (500 μM cream vs 100 μM cream) was “closed more rapidly”. In data set [2] (any treatment regime of the study), the “adverse tissue responses, gross examination of wound and wound margin tissue” value is listed as “no adverse tissue responses were noted”. Moreover, the “area of the treated ulcers following the photodynamic treatment” value in data set [3] (50 J/cm^2) is “reduction in the area of the treated ulcers”. Further, in data set [3] (setting [6]), the “Percentage reduction in ulcer area at 1 month compared to pre treatment” value is 13% and 8% and 10% and 50% and 34%; the “Percentage reduction in ulcer area at 1 week compared to pre treatment” value is 8% and 14% and 0% and 23%. In addition, in data set [4] (100 μM cream), the “% Wound area remaining, no light, 2 days post treatment” value came to 62%; the “% Wound area remaining, no light, 4 days post treatment” value worked out at 33%; the “% Wound area remaining, no light, 6 days post treatment” value was 25%. Moreover, in data set [4] (500 μM cream), the “% Wound area remaining, no light, 2 days post treatment” value came to 62%; the “% Wound area remaining, no light, 4 days post treatment” value is listed as 30%; the “% Wound area remaining, no light, 6 days post treatment” value stood at 19%. In addition, the “wound healing, 500 μM vs 100 μM” value in data set [4] (no light) is on record as “heal faster at a 500 μM concentration than at 100 μM”. Also, the “healing as measured by the size of the wound, compared to placebo” value with chronic leg ulcers is “Better healing”. The “patients showing complete wound healing at 2 months” value in the data set on chronic leg ulcers (2 out of 8 patients, placebo: none) turned out to be 25%. The “patients showing complete wound healing at 3 months” value in the data set on chronic leg ulcers (4 out of 8 patients, placebo: 1 out of 8 (12.5%)) stood at 50%.

With Photofrin, in data set [5], the “effect on wound healing” value was “delayed wound healing”. In the data set with wounds, the “effect of PDT on wound healing” value is recorded as “delay wound healing”.

Regarding Poly-lysine-chlorin e6, in the data set with wounds, the “effect of PDT on wound healing” value was “did not accelerate wound healing”.
